# In patent publication US9198846B2, “Basic amino acid derivative” (AJINOMOTO CO., INC., priority 2012, dated 2015):
# Assay: Gelling ability of basic amino acid derivatives (test tube tilting, visual appearance)
# Format: physicochemical
# Set-up: key to gel appearance: GT: transparent gel; GTL: translucent gel; GO: opaque gel
# Conditions: heated to 100° C., stood at 25° C. for 2 hr
# Procedure: The gelling ability of various basic amino acid derivatives prepared in Production Examples 1-4, 7, 9 and 10 was confirmed. Test tube equipped with a cover was filled with water, saline, phosphate buffered saline (hereinafter indicated as PBS), and aqueous NaCl solution or aqueous KCl solution, and a basic amino acid derivative was added at various concentrations. The mixture was heated to 100° C. to achieve homogeneous dissolution, and stood at 25° C. for 2 hr. After allowing to cool, the test tube was tilted, and the absence of fluidity was judged as gellation, and the appearance was visually observed.
# Abbreviations mean the following. • GT: transparent gel • GTL: translucent gel • GO: opaque gel
SMILES,gel appearance (0.1M aqueous KCl solution),minimum gelling concentration (0.1M aqueous KCl solution),gel appearance (0.1M aqueous NaCl solution),minimum gelling concentration (0.1M aqueous NaCl solution),gel appearance (saline),minimum gelling concentration (saline),gel appearance (water),minimum gelling concentration (water),gel appearance (1.0M aqueous KCl solution),minimum gelling concentration (1.0M aqueous KCl solution),gel appearance (1.0M aqueous NaCl solution),minimum gelling concentration (1.0M aqueous NaCl solution),gel appearance (PBS),minimum gelling concentration (PBS)
"CCCCCCCCCCCC(=O)NCCCC[C@H](NC(=O)CC(CCCCCCCCCC)C(=O)[O-])C(=O)OCC.[Na+] (stereo partly drawn) [Production Example 1, N^ε-lauroyl-N^α-(3-carboxytridecanoyl)-L-lysine ethyl ester sodium salt]",GTL,15 g/L,GTL,10 g/L,GTL,20 g/L,GTL,25 g/L,–,–,–,–,–,–
"CCCCCCCCCCCC(=O)NCCCC[C@H](NC(=O)CCCCCCCCC(=O)[O-])C(=O)O.[K+] [Production Example 10, N^ε-lauroyl-N^α-(9-carboxynonanoyl)-L-lysine monopotassium salt]",GT,4 g/L,GT,10 g/L,GT,4 g/L,GTL,30 g/L,GT,4 g/L,GT,4 g/L,GT,4 g/L
"CCCCCCCCCCCC(=O)NCCCC[C@H](NC(=O)CC(CCCCCCCCCC)C(=O)[O-])C(=O)O.[K+] (stereo partly drawn) [Production Example 4, N^ε-lauroyl-N^α-(3-carboxytridecanoyl)-L-lysine monopotassium salt]",GTL,40 g/L,GTL,20 g/L,GTL,50 g/L,GTL,60 g/L,GO,20 g/L,–,–,GO,60 g/L
"CCCCCCCCCCCC(=O)NCCCC[C@H](NC(=O)CC(CCCCCCCCCC)C(=O)[O-])C(=O)O.[Na+] (stereo partly drawn) [Production Example 3, N^ε-lauroyl-N^α-(3-carboxytridecanoyl)-L-lysine monosodium salt]",GTL,20 g/L,GTL,20 g/L,GTL,50 g/L,GTL,50 g/L,GO,20 g/L,–,–,GO,60 g/L
"CCCCCCCCCCCC(=O)NCCCC[C@H](NC(=O)CCCCCCCCC(=O)[O-])C(=O)O.[Na+] [Production Example 9, N^ε-lauroyl-N^α-(9-carboxynonanoyl)-L-lysine monosodium salt]",GT,4 g/L,GT,4 g/L,GT,4 g/L,GTL,30 g/L,GT,4 g/L,GT,4 g/L,GT,4 g/L
"CCCCCCCCCCCC(=O)NCCCC[C@H](NC(=O)CC(CCCCCCCCCC)C(=O)[O-])C(=O)OCC.[K+] (stereo partly drawn) [Production Example 2, N^ε-lauroyl-N^α-(3-carboxytridecanoyl)-L-lysine ethyl ester potassium salt]",GTL,10 g/L,GTL,10 g/L,GTL,20 g/L,GTL,20 g/L,–,–,–,–,–,–
"CCCCCCCCCCCC(=O)NCCCC[C@H](NC(=O)CCCCCCC(=O)[O-])C(=O)O.[Na+] [Production Example 7, N^ε-lauroyl-N^α-(7-carboxyheptanoyl)-L-lysine monosodium salt]",GT,30 g/L,GTL,30 g/L,GT,30 g/L,–,–,GT,4 g/L,GT,4 g/L,GT,30 g/L
